The source made the active and inactive calls. No cut-off for these calls is given here. A value given as a limit tells only on which side of the number the result lay.

In series [1] the target is T1, Phosphatidylinositol 3-kinase (Mus musculus) (UniProt P26450+P42337). Put plainly: Inhibition of PI3K in mouse B16 cells assessed as reduction in phosphorylation of AKT at T308 residue at 10 to 15 uM incubated for 24 hrs by Western blot analysis. The conditions noted are these: dose 10-15 µM. The format is cell-based. On the technique in general: Immunoblotting shows a protein as a band on a membrane.
T1 sequence (P26450 whole entry, looked up): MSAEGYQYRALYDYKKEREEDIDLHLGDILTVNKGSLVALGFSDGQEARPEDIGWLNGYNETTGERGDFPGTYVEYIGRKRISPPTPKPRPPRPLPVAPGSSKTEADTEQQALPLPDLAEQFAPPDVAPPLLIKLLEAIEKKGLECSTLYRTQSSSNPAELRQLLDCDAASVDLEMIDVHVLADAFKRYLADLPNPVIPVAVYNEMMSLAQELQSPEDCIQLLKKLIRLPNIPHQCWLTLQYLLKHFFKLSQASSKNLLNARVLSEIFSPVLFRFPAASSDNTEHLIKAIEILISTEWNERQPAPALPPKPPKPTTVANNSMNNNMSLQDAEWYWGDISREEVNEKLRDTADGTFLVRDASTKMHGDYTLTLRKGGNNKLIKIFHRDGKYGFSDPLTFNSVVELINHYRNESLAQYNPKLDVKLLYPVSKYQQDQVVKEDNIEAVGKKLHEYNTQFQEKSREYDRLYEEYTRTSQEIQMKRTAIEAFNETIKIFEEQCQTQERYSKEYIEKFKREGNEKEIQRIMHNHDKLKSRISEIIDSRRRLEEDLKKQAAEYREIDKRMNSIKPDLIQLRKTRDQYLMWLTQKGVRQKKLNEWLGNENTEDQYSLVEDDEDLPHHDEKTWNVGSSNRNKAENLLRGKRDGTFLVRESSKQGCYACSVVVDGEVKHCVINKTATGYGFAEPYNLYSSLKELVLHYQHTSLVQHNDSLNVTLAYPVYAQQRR
T1 sequence (P42337 whole entry, looked up): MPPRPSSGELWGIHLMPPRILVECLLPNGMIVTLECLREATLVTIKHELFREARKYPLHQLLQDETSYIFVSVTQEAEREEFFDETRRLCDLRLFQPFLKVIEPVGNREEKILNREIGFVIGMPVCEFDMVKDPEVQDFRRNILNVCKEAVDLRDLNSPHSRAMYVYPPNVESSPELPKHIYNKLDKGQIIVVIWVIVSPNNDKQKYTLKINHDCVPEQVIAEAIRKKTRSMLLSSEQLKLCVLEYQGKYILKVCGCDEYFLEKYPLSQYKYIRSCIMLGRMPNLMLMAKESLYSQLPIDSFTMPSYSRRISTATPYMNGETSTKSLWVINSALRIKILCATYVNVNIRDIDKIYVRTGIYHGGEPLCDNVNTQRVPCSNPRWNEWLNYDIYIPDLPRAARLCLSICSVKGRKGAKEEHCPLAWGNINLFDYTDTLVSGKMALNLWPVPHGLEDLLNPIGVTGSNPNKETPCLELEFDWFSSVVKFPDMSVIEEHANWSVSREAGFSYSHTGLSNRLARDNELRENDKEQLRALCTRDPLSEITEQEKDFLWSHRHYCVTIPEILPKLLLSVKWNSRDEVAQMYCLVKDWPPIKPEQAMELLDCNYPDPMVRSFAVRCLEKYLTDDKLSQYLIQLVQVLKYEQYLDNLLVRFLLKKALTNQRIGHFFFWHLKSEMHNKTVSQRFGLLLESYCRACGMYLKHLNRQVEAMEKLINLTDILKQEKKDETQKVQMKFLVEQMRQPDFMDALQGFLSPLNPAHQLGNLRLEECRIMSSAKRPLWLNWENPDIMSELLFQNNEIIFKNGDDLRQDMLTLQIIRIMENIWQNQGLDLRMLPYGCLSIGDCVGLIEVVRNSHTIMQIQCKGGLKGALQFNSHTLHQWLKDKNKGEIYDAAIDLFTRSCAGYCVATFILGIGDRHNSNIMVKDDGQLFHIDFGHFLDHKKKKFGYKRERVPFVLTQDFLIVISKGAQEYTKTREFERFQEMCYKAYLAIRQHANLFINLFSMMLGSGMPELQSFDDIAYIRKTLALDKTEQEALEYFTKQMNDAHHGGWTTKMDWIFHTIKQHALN

Series [2] deals with T1, Phosphatidylinositol 3-kinase (Mus musculus). Nature of the series: Inhibition of PI3K in mouse B16 cells assessed as reduction in MCL-1 protein expression at 10 to 15 uM incubated for 24 hrs by Western blot analysis. In kind it is cell-based. The conditions noted are these: dose 10-15 µM.
Series [3] can be described thus: Retention time of the compound under 365 nm UV light irradiation by HPLC analysis. In kind it is physicochemical.
The target in series [4] is T1, Phosphatidylinositol 3-kinase (Mus musculus). Put plainly: Inhibition of PI3K in mouse B16 cells assessed as reduction in phosphorylation of AKT at […] residue at 10 to 15 uM incubated for 24 hrs by Western blot analysis. The format is cell-based. The note with it: dose 10-15 µM.
Series [5] can be described thus: Photorelease activity in PBS assessed as N-(2-chloro-5-(1H-pyrazolo[3,4-b]pyridin-5-yl)pyridin-3-yl) benzene sulfonamide release irradiated with 254 nm incubated for 12 mins by HPLC analysis.
Series [6] concerns the target T1, Phosphatidylinositol 3-kinase (Mus musculus). Nature of the series: Inhibition of PI3K in mouse B16 cells assessed as reduction in phosphorylation of AKT at T308 residue at 10 to 15 uM incubated for 24 hrs irradiated with 365 nm uv light for 4 min by Western blot analysis. The format is cell-based. The note with it: dose 10-15 µM.
Series [7] shares this target. Nature of the series: Inhibition of PI3K in mouse B16 cells assessed as reduction in phosphorylation of AKT at T308 residue incubated for 24 hrs by Western blot analysis. The format is cell-based. The note with it: dose 10-15 µM.
The target is the same in series [8]. Put plainly: Inhibition of PI3K in mouse B16 cells assessed as reduction in MCL-1 protein expression at 10 to 15 uM incubated for 24 hrs irradiated with 365 nm uv light for 4 min by Western blot analysis. The format is cell-based. The conditions noted are these: dose 10-15 µM.
For series [9], the system named is B16. Nature of the series: Antiproliferative activity against mouse B16 cells assessed as reduction in cell viability incubated for 48 hrs irradiated with 365 nm uv light for 4 min by CCK-8 assay. In kind it is functional, cell-based. The note with it: B16, light or radiation study. (Tetrazolium dyes change colour on reduction, which living cells bring about.)

Series [10] has as its system B16. Put plainly: Induction of apoptosis in mouse B16 cells assessed as necrotic cells at 10 uM incubated for 48 hrs irradiated with 365 nm for 4 mins by annexin-V/propidium iodide staining based flow cytometry analysis (reference value: 0.07 %). In kind it is functional. For orientation: In flow cytometry, cells or beads pass a laser one at a time.
In series [11] the test system is B16. Put plainly: Induction of apoptosis in mouse B16 cells assessed as viable cells at 15 uM incubated for 48 hrs irradiated with 365 nm for 4 mins by annexin-V/propidium iodide staining based flow cytometry analysis (reference value: 96.7 %). In kind it is functional. The conditions noted are these: B16, light or radiation study, read-out: Activity.
The subject of series [12] is B16. Put plainly: Induction of apoptosis in mouse B16 cells assessed as late apoptotic cells at 10 uM incubated for 48 hrs irradiated with 365 nm for 4 mins by annexin-V/propidium iodide staining based flow cytometry analysis (reference value: 0.84 %). The format is functional.
Series [13] has as its system B16. Put plainly: Induction of apoptosis in mouse B16 cells assessed as increase in apoptotic cells at 10 uM incubated for 48 hrs by annexin-V/propidium iodide staining based flow cytometry analysis. In kind it is functional.
Series [14] deals with T1, Phosphatidylinositol 3-kinase (Mus musculus). Put plainly: Inhibition of PI3K in mouse B16 cells assessed as reduction in phosphorylation of AKT at […] residue incubated for 24 hrs by Western blot analysis. The note with it: dose 10-15 µM. In kind it is cell-based.
Series [15] shares this target. Nature of the series: Inhibition of PI3K in mouse B16 cells assessed as reduction in phosphorylation of AKT at […] residue at 10 to 15 uM incubated for 24 hrs irradiated with 365 nm uv light for 4 min by Western blot analysis. The format is cell-based. The conditions noted are these: dose 10-15 µM.
The target is the same in series [16]. Nature of the series: Inhibition of PI3K in mouse B16 cells assessed as reduction in MCL-1 protein expression incubated for 24 hrs by Western blot analysis. In kind it is cell-based. The conditions noted are these: dose 10-15 µM.
In series [17] the test system is B16. Put plainly: Induction of apoptosis in mouse B16 cells assessed as late apoptotic cells at 15 uM incubated for 48 hrs irradiated with 365 nm for 4 mins by annexin-V/propidium iodide staining based flow cytometry analysis (reference value: 0.84 %). The format is functional.
The test system of series [18] is B16. Put plainly: Induction of apoptosis in mouse B16 cells assessed as viable at 15 uM incubated for 48 hrs by annexin-V/propidium iodide staining based flow cytometry analysis (reference value: 97.4 %). In kind it is functional.
Series [19] has as its system B16. Put plainly: Induction of apoptosis in mouse B16 cells assessed as early apoptotic cells at 10 uM incubated for 48 hrs irradiated with 365 nm for 4 mins by annexin-V/propidium iodide staining based flow cytometry analysis (reference value: 2.38 %). In kind it is functional.
The target of series [20] is Phosphatidylinositol 4,5-bisphosphate 3-kinase catalytic subunit alpha isoform (Homo sapiens, UniProt P42336). Put plainly: Inhibition of PI3Kalpha (unknown origin).
Phosphatidylinositol 4,5-bisphosphate 3-kinase catalytic subunit alpha isoform, sequence (P42336 whole entry, canonical isoform): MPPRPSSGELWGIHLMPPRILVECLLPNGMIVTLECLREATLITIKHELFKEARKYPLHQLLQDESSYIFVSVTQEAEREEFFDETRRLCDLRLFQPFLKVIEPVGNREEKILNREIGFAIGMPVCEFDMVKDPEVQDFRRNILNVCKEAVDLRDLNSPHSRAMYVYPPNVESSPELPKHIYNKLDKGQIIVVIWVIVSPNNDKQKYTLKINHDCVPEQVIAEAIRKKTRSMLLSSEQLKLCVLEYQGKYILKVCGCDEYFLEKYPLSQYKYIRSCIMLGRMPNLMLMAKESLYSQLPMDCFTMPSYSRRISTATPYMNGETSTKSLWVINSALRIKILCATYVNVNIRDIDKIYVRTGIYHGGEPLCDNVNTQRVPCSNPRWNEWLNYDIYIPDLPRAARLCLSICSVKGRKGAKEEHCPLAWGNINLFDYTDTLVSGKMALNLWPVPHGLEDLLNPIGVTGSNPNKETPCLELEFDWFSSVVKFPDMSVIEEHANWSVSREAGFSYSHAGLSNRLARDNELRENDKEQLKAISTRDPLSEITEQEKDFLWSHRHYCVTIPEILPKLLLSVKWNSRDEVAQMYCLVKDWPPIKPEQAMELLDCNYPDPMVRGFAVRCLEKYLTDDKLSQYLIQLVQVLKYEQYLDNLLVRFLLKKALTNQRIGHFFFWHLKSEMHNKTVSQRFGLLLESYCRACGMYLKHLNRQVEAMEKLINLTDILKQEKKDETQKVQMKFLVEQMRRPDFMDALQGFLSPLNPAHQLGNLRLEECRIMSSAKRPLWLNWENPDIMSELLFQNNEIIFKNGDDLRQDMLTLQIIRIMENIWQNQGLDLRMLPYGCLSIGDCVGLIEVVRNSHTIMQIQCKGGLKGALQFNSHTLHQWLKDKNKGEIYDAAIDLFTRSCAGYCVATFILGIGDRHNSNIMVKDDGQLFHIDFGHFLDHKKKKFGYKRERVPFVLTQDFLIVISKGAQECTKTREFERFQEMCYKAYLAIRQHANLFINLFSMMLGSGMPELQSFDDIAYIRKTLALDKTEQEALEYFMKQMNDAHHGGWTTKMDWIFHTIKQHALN
Series [21] deals with B16. Put plainly: Induction of apoptosis is in mouse B16 cells assessed as necrotic cells at 15 uM incubated for 48 hrs by annexin-V/propidium iodide staining based flow cytometry analysis (reference value: 0.01 %). In kind it is functional.
Series [22] addresses Phosphatidylinositol 4,5-bisphosphate 3-kinase catalytic subunit beta isoform (Homo sapiens, UniProt P42338). Nature of the series: Inhibition of PI3Kbeta (unknown origin).
The subject of series [23] is B16. Nature of the series: Induction of cell cycle arrest in mouse B16 cells assessed as cells accumulation at G2/M phase at 10 to 15 uM incubated for 24 hrs irradiated with 365 nm for 4 mins by flow cytometry analysis. In kind it is functional, cell-based. The conditions noted are these: dose 10-15 µM.
The test system of series [24] is B16. Nature of the series: Induction of apoptosis is in mouse B16 cells assessed as late apoptotic cells at 10 uM incubated for 48 hrs by annexin-V/propidium iodide staining based flow cytometry analysis (reference value: 1.15 %). In kind it is functional.
Series [25] has as its target Phosphatidylinositol 4,5-bisphosphate 3-kinase catalytic subunit gamma isoform (Homo sapiens, UniProt P48736). Nature of the series: Inhibition of PI3Kgamma (unknown origin).
Series [26] concerns B16. Put plainly: Induction of apoptosis in mouse B16 cells assessed as early apoptotic cells at 10 uM incubated for 48 hrs by annexin-V/propidium iodide staining based flow cytometry analysis (reference value: 1.39 %). The format is functional.
Series [27] deals with B16. Nature of the series: Induction of apoptosis in mouse B16 cells assessed as viable cells at 10 uM incubated for 48 hrs irradiated with 365 nm for 4 mins by annexin-V/propidium iodide staining based flow cytometry analysis (reference value: 96.7 %). The conditions noted are these: B16, light or radiation study, read-out: Activity. The format is functional.
Series [28] has as its system B16. Nature of the series: Induction of apoptosis in mouse B16 cells assessed as viable at 10 uM incubated for 48 hrs by annexin-V/propidium iodide staining based flow cytometry analysis (reference value: 97.4 %). In kind it is functional.
Series [29] has as its system B16. Put plainly: Induction of apoptosis is in mouse B16 cells assessed as necrotic cells at 10 uM incubated for 48 hrs by annexin-V/propidium iodide staining based flow cytometry analysis (reference value: 0.01 %). The format is functional.
The subject of series [30] is B16. Put plainly: Induction of apoptosis in mouse B16 cells assessed as early apoptotic cells at 15 uM incubated for 48 hrs irradiated with 365 nm for 4 mins by annexin-V/propidium iodide staining based flow cytometry analysis (reference value: 2.38 %). The format is functional.
For series [31], the system named is B16. Nature of the series: Induction of apoptosis in mouse B16 cells assessed as early apoptotic cells at 15 uM incubated for 48 hrs by annexin-V/propidium iodide staining based flow cytometry analysis (reference value: 1.39 %). The format is functional.
Series [32] deals with B16. Put plainly: Induction of apoptosis in mouse B16 cells assessed as necrotic cells at 15 uM incubated for 48 hrs irradiated with 365 nm for 4 mins by annexin-V/propidium iodide staining based flow cytometry analysis (reference value: 0.07 %). In kind it is functional.
The target in series [33] is T2, Phosphatidylinositol 4,5-bisphosphate 3-kinase catalytic subunit delta isoform (Homo sapiens, UniProt O00329).
T2 sequence (O00329 whole entry): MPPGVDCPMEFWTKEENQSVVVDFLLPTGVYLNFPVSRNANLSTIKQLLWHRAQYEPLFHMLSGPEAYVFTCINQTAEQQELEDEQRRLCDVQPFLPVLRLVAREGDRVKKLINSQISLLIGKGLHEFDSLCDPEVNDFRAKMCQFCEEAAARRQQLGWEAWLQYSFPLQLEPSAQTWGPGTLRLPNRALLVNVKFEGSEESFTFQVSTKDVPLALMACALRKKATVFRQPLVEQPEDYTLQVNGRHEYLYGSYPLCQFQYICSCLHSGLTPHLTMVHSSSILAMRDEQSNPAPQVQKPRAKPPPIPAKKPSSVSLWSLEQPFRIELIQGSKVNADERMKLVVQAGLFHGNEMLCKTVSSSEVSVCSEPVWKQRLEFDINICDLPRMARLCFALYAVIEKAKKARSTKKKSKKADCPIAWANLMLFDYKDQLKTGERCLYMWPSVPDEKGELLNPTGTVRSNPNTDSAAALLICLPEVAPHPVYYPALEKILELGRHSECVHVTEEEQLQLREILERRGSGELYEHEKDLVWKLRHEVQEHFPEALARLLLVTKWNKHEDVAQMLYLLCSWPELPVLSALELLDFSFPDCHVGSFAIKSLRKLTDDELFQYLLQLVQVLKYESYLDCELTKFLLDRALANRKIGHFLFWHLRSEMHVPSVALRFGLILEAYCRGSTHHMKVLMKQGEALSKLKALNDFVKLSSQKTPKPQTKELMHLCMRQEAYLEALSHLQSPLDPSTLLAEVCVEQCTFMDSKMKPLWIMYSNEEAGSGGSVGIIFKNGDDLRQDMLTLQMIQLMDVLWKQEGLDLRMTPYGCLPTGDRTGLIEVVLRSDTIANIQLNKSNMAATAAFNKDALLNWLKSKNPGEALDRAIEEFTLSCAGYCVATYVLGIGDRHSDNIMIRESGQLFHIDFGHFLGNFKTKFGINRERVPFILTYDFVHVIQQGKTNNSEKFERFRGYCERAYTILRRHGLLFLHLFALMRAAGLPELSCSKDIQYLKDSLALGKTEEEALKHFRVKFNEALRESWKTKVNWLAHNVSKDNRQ
Put plainly: Inhibition of PI3Kdelta (unknown origin).

For series [34], the system named is B16. Nature of the series: Induction of apoptosis is in mouse B16 cells assessed as late apoptotic cells at 15 uM incubated for 48 hrs by annexin-V/propidium iodide staining based flow cytometry analysis (reference value: 1.15 %). The format is functional.
Series [35] has as its system B16. Put plainly: Induction of cell cycle arrest in mouse B16 cells assessed as cells accumulation at G2/M phase at 10 to 15 uM incubated for 24 hrs by flow cytometry analysis. The format is functional, cell-based. The note with it: dose 10-15 µM.

Phosphatidylinositol 4,5-bisphosphate 3-kinase catalytic subunit beta isoform, sequence (P42338 whole entry, canonical isoform): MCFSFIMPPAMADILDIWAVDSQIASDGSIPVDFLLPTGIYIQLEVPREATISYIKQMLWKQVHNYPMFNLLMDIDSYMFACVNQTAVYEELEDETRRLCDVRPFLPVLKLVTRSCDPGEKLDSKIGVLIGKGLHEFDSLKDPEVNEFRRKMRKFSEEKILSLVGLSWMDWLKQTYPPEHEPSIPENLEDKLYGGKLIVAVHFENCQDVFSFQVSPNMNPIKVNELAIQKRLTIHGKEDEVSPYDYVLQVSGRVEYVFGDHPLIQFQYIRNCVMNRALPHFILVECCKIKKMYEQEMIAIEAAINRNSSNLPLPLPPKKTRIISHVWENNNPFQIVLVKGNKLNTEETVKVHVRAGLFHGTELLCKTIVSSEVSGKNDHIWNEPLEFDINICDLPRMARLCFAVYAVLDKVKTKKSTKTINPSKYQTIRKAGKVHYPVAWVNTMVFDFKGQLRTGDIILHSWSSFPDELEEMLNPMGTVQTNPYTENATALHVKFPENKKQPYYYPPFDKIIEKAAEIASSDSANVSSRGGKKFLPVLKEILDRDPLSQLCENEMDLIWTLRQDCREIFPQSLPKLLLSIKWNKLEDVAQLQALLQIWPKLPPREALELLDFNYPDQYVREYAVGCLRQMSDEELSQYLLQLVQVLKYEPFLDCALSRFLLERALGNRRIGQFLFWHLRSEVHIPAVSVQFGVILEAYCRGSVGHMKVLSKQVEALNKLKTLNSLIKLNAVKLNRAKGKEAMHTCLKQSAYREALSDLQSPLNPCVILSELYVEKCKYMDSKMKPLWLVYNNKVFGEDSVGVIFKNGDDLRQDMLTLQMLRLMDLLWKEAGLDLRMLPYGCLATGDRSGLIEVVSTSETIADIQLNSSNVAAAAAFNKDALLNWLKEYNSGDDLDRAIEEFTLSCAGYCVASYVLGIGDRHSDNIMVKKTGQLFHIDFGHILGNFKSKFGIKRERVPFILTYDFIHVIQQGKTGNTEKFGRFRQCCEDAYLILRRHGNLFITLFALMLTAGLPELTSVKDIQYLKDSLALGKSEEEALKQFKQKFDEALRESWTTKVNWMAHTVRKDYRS
Phosphatidylinositol 4,5-bisphosphate 3-kinase catalytic subunit gamma isoform, sequence (P48736 whole entry, canonical isoform): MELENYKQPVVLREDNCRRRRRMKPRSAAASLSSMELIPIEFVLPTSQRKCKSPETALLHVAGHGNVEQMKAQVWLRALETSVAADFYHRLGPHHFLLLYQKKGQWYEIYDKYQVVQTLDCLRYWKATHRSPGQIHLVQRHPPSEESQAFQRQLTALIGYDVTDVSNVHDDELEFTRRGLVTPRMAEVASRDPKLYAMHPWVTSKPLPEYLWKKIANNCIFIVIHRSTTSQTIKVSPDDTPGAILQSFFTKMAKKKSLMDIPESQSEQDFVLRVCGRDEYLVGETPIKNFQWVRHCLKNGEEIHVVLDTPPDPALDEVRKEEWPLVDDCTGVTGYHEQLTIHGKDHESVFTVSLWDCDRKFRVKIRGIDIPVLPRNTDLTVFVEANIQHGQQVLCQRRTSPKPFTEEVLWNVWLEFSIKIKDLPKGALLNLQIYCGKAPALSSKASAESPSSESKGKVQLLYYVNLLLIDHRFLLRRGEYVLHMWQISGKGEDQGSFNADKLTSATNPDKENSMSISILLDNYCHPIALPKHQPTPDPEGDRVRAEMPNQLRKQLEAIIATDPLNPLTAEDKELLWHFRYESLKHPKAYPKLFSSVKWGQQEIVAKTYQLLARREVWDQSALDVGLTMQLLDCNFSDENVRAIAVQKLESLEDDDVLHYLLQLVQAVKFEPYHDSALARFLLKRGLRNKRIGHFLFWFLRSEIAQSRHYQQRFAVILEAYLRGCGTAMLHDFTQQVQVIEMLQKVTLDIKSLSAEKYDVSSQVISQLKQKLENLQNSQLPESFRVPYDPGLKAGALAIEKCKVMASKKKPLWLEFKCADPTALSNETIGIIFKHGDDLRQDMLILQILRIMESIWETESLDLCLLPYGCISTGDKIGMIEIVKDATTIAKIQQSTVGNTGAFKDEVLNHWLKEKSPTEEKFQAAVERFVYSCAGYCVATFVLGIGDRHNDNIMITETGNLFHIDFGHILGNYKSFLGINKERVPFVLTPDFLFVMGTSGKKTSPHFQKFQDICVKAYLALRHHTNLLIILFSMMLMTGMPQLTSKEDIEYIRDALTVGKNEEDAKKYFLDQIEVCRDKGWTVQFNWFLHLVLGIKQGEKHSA

Turning to `O=S(=O)(Nc1cc(-c2cnc3[nH]ncc3c2)cnc1Cl)c1ccccc1`, the inhibition entry in [1], in series [2] and in [4] was “Active” throughout. The same molecule returned a Retention_time in series [3] of 7.9 min.

`COc1cc(COC(=O)n2ncc3cc(-c4cnc(Cl)c(NS(=O)(=O)c5ccccc5)c4)cnc32)c([N+](=O)[O-])cc1OC`: in series [5], the Drug metabolism is over 98%. Besides, the inhibition result in series [6], in [8] and in series [15] was “Active” in each case. In addition, the inhibition entry in series [7], in series [14] and in [16] was “Dose-Dependent Effect” in each case. Besides, the IC50 (usually the concentration that inhibits the measured activity by half) in series [9] is 8800 nM; in [20] it was 43 nM; in series [22] it was 83 nM; in [25] it was 84 nM; in series [33], 14 nM. Further, the Activity is given as 0% in series [10]; 3.49% in [12]; under 10% in series [13]; 14.7% in [17]; 88.1% in [18]; 8.04% in [19]. Further, the Activity in [21] was found to be 1.3%; in series [24] it was 1.25%; in series [26], 3.16%; in series [28], 95.6%; in series [29], 0%; in [30] it was 14.4%. The Activity in series [31] stood at 7.13%; in [32], 1.27%; in series [34], 3.42%. Besides, the viability at 15 µM in [11] amounted to 69.6%. For the same molecule, the result in series [23] and in [35] was Active. The Retention_time in [3] is 10.4 min. Further, in series [27], the viability at 10 µM stood at 88.5%.

For the origin of these results see ChEMBL document CHEMBL5365445, “Discovery of a photosensitizing PI3K inhibitor for tumor therapy: Design, synthesis and in vitro biological evaluation” (Bioorg Med Chem Lett, 2023).
